This assay concerns the target T1, 15-PGDH de type 1 (Homo sapiens, UniProt P15428).
T1 sequence (P15428 1-266): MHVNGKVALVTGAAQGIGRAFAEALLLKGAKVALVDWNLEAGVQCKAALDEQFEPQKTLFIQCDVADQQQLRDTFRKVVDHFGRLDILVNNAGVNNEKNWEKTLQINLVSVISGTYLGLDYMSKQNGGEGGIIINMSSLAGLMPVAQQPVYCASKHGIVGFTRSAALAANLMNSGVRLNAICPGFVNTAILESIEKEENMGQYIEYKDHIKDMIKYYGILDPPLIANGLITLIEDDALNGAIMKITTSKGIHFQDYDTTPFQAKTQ
Nature of the assay: Test on 15-PGDH type 1: spectrophotometric enzyme inhibition, NADH formation at 340 nm with PGE2 and β-NAD. The class given is biochemical. Conditions: concentration reducing the enzymatic activity of 15-PGDH by 50%; Tris 100 mM pH 7,4, 37°C, 50 µM Prostaglandine E2, 1,5 mM β-NAD. Here is the method:
L'enzyme 15-PGDH est obtenue comme décrit dans la demande FR 02/05067 déposée au nom de L'Oréal, en suspension dans un milieu adapté à une concentration de 0,3 mg/mL puis bloquée à - 80°C. Pour les besoins du test, cette suspension est décongelée et stockée dans de la glace.
Par ailleurs on prépare un tampon Tris 100 mM, pH = 7,4, contenant 0,1 mM de dithiothréitol (D5545, Sigma-Aldrich, L'isle D'Abeau Chesne, BP 701, 38297, Saint Quentin Fallavier), 1,5 mM de β-NAD (N6522, Sigma-Aldrich, L'isle D'Abeau Chesne, BP 701, 38297, Saint Quentin Fallavier), 50 µM de Prostaglandine E2 (P4172, Sigma-Aldrich, L'isle D'Abeau Chesne, BP 701, 38297, Saint Quentin Fallavier).
Dans la cuve d'un spectrophotomètre (Perkin-Elmer, Lambda 2) thermostaté à 37°C, dont la longueur d'onde de mesure est réglée à 340 nm, sont introduits 0,965 ml de ce tampon (préalablement porté à 37°C). 0,035 mL de suspension enzymatique à 37°C sont introduits dans la cuve concomitamment à l'enregistrement (correspondant à une augmentation de la densité optique à 340 nm). La vitesse maximale de réaction est relevée. […]

The values below come from EP1738740A2, “Use of benzyl-1,3-thiazolidine-2,4-dione compounds for favouring and/or inducing and/or stimulating the pigmentation of keratinic materials and/or for limiting their depigmentation and/or their bleaching” (L'Oreal, priority 2005, dated 2007).

pIC50: −log10 of the molar value.

Broadly, the pIC50 is the IC50 on a negative log10 scale, so that one unit is a factor of ten. `O=C1NC(=O)C(Cc2ccccc2Oc2ccc(Cl)cc2)S1` (stereo not shown) [compound 1] had a pIC50 of 5.66.
